System: anaesthetized cats
Test: Determination of the effect on blood pressure and positive inotropic activity in anaesthetized cats
Format: in vivo
Settings: 0.3 mg/kg i.v., average of 2 cats; for Diastolic blood pressure change: anaesthetized cats (sodium pentobarbital), pressure in aorta abdominalis; for Duration of effect (half life) / Increase of dp/dt (contractility parameter dp/dtmax): anaesthetized cats; for Increase of dp/dt (contractility parameter dp/dtmax): pressure in left ventricle, catheter-tip manometer
Experimental: 1. Determination of the effect on blood pressure and positive inotropic activity in anaesthetized cats: The tests were carried out on cats which had been anaesthetized with sodium pentobarbital (40 mg/kg i.p. and 8 mg/kg/hour i.v.). The animals breathed spontaneously. The arterial blood pressure was measured in the aorta abdominalis using a Statham pressure transducer (P 23 Dc). To determine the positive inotropic activity the pressure in the left ventricle was measured using a catheter-tip manometer (Millar PC-350 A). From this, the contractility parameter dp/dtmax was obtained using an analogue differentiator. The test substance was injected into a vena femoralis. Polydiol 200 was used as solvent. The substance was tested on 2 cats, dosage 0.3 mg/kg i.v.

Row | Structure (SMILES) | Diastolic blood pressure change | Duration of effect (half life) | Increase of dp/dt (contractility parameter dp/dtmax)
1 | CCN1C(=O)OC(C)(C)c2cc3[nH]c(-c4ccncc4)nc3cc21 [B, 5-ethyl-8,8-dimethyl-2-(4-pyridyl)-8-hydro-(5H)imidazo[5,4-g][3,1]benzoxazin-6-one] | -21 mmHg | 16 min | +52%
2 | CC1(C)OC(=O)Nc2cc3nc(-c4cccs4)[nH]c3cc21 [F, 8,8-dimethyl-2-(2-thienyl)-8-hydro-(5H)-imidazo[5,4-g][3,1]benzoxazin-6-one] | -24 mmHg | 10 min | +28%
3 | CCN1C(=O)OC(C)(C)c2cc3[nH]c(-c4ccco4)nc3cc21 [D, 5-ethyl-8,8-dimethyl-2-(2-furyl)-8-hydro-(5H)imidazo[5,4-g][3,1]benzoxazin-6-one] | -37 mmHg | 4 min | +41%
4 | CCCc1nc2cc3c(cc2[nH]1)C(C)(C)OC(=O)N3 [C, 8,8-dimethyl-2-n-propyl-8-hydro-(5H)-imidazo[5,4-g][3,1]benzoxazin-6-one] | -11 mmHg | 11 min | +31%
5 | CC1(C)OC(=O)Nc2cc3nc(-c4ccncc4)[nH]c3cc21 [A, 8,8-dimethyl-2-(4-pyridyl)-8-hydro-(5H)-imidazo[5,4-g][3,1]benzoxazin-6-one] | 0 mmHg | 18 min | +43%
6 | CC1(C)OC(=O)Nc2cc3nc(-c4ccco4)[nH]c3cc21 [E, 8,8-dimethyl-2-(2-furyl)-8-hydro-(5H)-imidazo[5,4-g][3,1]benzoxazin-6-one] | -16 mmHg | 7 min | +31%

Reference: US4831027A, “Imidazo-benzoxazinones, the preparation thereof and pharmaceutical compositions containing these compounds” (Dr. Karl Thomae GmbH, priority 1986, dated 1989)
